The source of these data is publication PMC10077338, “Galangin delivered by retinoic acid-modified nanoparticles targeted hepatic stellate cells for the treatment of hepatic fibrosis” (RSC Advances, 2023).

Each structure is given as a SMILES string.

The nature of series [1]: Pharmacokinetics after oral administration. The class given is in vivo, Sprague–Dawley rats. The protocol: All animal procedures were approved by the Animal Care and Use Committee of the Renmin Hospital of Wuhan University (Laboratory Animal Welfare and Ethics Committee [Institutional Animal Care and Use Committee] Issue No.: WDRM NO.20200501). […] Free GA, GA-NPs, and RA-GA-NPs were orally administered (GA concentration: 50 mg kg^−1). Subsequently, 200 μL of blood were collected at predetermined time points (i.e., 0.5, 1, 2, 4, 6, 8, 10, 12, and 24 h). The concentrations of GA in plasma were determined by HPLC. Plasma samples (200 μL) were extracted using 200 μL of acetonitrile, vortexed for 10 min, and centrifuged at 5000 rpm for 5 min. Thereafter, the supernatant was collected and filtered using a 0.45 μm nylon 66 membrane. Finally, each sample (20 μL) was injected into the HPLC system.

The next series deals with HF model induced by CCl4. Description: Anti-HF effect in vivo. On the set-up: species or system C57BL/6 mice. The note with it: 20 mg kg^−1 oral daily for 4 weeks, CCl4 mice. The protocol: Forty 6 weeks-old male C57BL/6 mice (weight: 20 ± 2 g; […]) were randomly divided into five groups (n = 8 per group): control; tetrachloromethane (CCl4)-treated; free GA; GA-NPs; and RA-GA-NPs. The HF model was induced by intraperitoneal injection with 10% CCl4 (diluted in olive oil, 5 mL per kg body weight) thrice per week for 4 consecutive weeks.[33–35] The control mice received an intraperitoneal injection with an equal volume of olive oil. The mice in all treatment groups received an injection with CCl4 for 4 weeks, as well as free GA, GA-NPs, or RA-GA-NPs (20 mg kg^−1) through oral administration once daily for 4 weeks; the dose of GA was based on previous reports.[36,37] All mice were sacrificed 12 h after the last administration, and blood specimens were collected through retro-orbital bleeding. Serum was subsequently separated by centrifugation at 3500 rpm for 15 min at 4 °C and stored at −20 °C. […] is typically used to discriminate collagen fibers from tissues on histological slides. […] The levels of ALT, AST, and Hyp were determined using detection kits, respectively, according to the instructions provided by the manufacturer. In addition, the serum levels of markers, HA, LN, PC III, and Col IV were determined using ELISA kits based on the respective protocols.

A further series has as its system aHSC. On the set-up: method as in PMID 32893252. The conditions noted are these: cited from earlier work.
Setting [2] is: both sexes, Sprague-Dawley, rat, plasma, GA 50 mg kg^−1, n = 6.

Broadly, the AUC is the area under the concentration-time curve, a measure of exposure. A high value points to high exposure. What is called MRT is a mean duration of stay, worked out from the concentration-time curve. A word on the half-life: it is the time in which the quantity being followed falls by half. Low readings indicate fast loss, high ones slow loss. For the compound `O=c1c(O)c(-c2ccccc2)oc2cc(O)cc(O)c12` [Free GA, 3,5,7-trihydroxyflavone], in series [1] (GA 50 mg kg^−1, n = 6), the AUC came out at 2580 ± 470 ng·h/mL, the CL is reported as 3.99 ± 0.73 (mg kg^−1)/h(μg mL^−1) and the V d is 20.98 ± 4.22 L/kg. Further, the “time for which serum drug concentrations were detected / maintained” value in series [1] (GA 50 mg kg^−1, sampling up to 24 h) is “up to 12 h”. In addition, in series [1] (setting [2]), the MRT was 5.25 ± 0.16 h and the half-life was 3.64 ± 0.11 h. The “effect on the biomarkers of HF (HA, LN, PC III, Col IV)” value in the series with HF model induced by CCl4 was “modest anti-fibrotic effect”. In the series on aHSC, the “concentration at which inhibition of aHSC in vitro was initiated” value is 6 µg/mL.
